Earlier results, collected in US8603436B2, “Methods and compositions for targeted drug delivery” (priority 2000, dated 2013).
Where two headings read alike, the source gives them in different places. Square brackets hold non-standard residues; d marks the D form. Peptide text beside a SMILES is read from it. * marks the point of attachment. X1 = NCCCC[C@H](NC(=O)[C@H](CS)NC(=O)[C@H](CCCCN)NC(=O)[C@@H](N)CNC(=O)C*)C(N)=O; NMeF = CN[C@@H](Cc1ccccc1)C(=O)O; hCys = N[C@@H](CCS)C(=O)O

What was measured:
tumor [1] = settings: tumor models and individual patients
glioblastoma cells = settings: in vitro
[2] = test system: ssr subtypes present in rat pancreas carcinoma membranes; settings: free (unlabeled) peptide
tumor [3] = settings: in vivo

## N[C@@H](Cc1ccc(B(O)O)cc1)C(=O)O [BPA, p-boronophenylalanine]
Tumor [1]
  tumor enrichment factor: ≤ 3
Glioblastoma cells
  concentration in lysosomes relative to cytosolic concentration: 100 fold lower
  concentration in microsomes relative to cytosolic concentration: 125 fold lower
  concentration in nuclei relative to cytosolic concentration: 80 fold lower
  time to maximum uptake into whole glioblastoma cells: 1 h
Glioblastoma cells; at maximum uptake
  cytosolic concentration: 250 ng per million of glioma cells

## CC(C)[C@@H]1NC(=O)[C@H](CCCCN)NC(=O)[C@@H](Cc2c[nH]c3ccccc23)NC(=O)[C@H](Cc2ccc(O)cc2)NC(=O)[C@H](Cc2ccccc2)N(C)C(=O)[C@H](CCSCC(=O)NC[C@H](N)C(=O)N[C@@H](CCCCN)C(=O)N[C@@H](CS)C(=O)N[C@@H](CCCCN)C(N)=O)NC1=O [depreotide] (cyclo([hCys](X1)[NMeF]Y[dW]KV))
[2]
  apparent affinity of the free peptide compared with octreotide: one order of magnitude lower

## beta-5-o-carboranyl-2′-deoxyuridine [D-CDU]
Tumor [3]
  tumor enrichment factor: ~100

## boronated protoporphyrin [BOPP]
lysosomes
  subcellular accumulation: accumulate in lysosomes, but not in mitochondria or the nucleus
